Reference: patent US9802880B2, “Cannabigerol derivatives” (VIVACELL BIOTECHNOLOGY ESPAÑA S.L., priority 2014, dated 2017)

Assays:
PPARg [1] = experiment: PPARg transactivation assay in human dermal primary fibroblasts; type: cell-based; conditions: 6 h treatment, FIG. 2
Description: FIG. 2. PPARg Transactivation Assays in Human Dermal Primary Fibroblasts.

N2a cells = experiment: Neuroprotection assay, glutamate-induced excitotoxicity in N2a cells; type: cell-based; conditions: 1 h pre-incubation, then 5 mM glutamate 24 h, FIG. 5
Description: N2a cells were pre-incubated for 1 h with compounds (II) to (V) and (XII) at the indicated concentrations. Then, cells were treated for 24 h with 5 mM glutamate to induce excitotoxicity, or cytotoxicity in neuronal cells induced by neurotransmitters. Cell viability was quantified by MTT assay. […] Control was set as 100% and data were referred to that value.
Cultured N2A cells were pre-incubated with the compounds II, III, IV, V and XII at the indicated concentrations for 1 h and then treated with 5 mM glutamate to induce excitotoxicity during 24 h (FIG. 5). Cytotoxicity was determined by the MTT method as described in example 3. Results are shown as mean±S.D. from at least three independent experiments, and expressed as percentage of cell viability against the control sample (−). Control was set as 100% and data were referred to that value.

EAE mice = experiment: Experimental autoimmune encephalomyelitis (EAE), clinical score; type: in vivo, C57BL/6 mice
Description: C57BL/6 mice were immunized with MOG35-55 and their clinical score evaluated daily. Mice were treated daily with compound (III) (10 mg/kg) on day 6 post-immunization and the 21 following days. […] Values are expressed as means±SEM for 10 animals per group.
C57BL/6 mice were immunized with MOG35-55 and their clinical score evaluated daily. Mice were treated daily with compound (XII) (5 mg/kg) on day 6 post-immunization and the 21 following days. […] Values are expressed as means±SEM for 6 animals per group.
EAE was induced in female C57BL/6 mice at 6-8 weeks of age by subcutaneous immunization with myelin oligodendrocyte glycoprotein polypeptide (MOG35-55) (300 μg) and 200 μg of Mycobacterium tuberculosis (H37Ra Difco, Franklin Lakes, N.J., USA) in a 1:1 mix with […] Freund's adjuvant (CFA, Sigma-Aldrich, Madrid, Spain). On the same day and 2 days later, mice were injected intraperitoneally (ip) with 200 ng of pertussis toxin (Sigma-Aldrich, Madrid, Spain) in 0.1 ml PBS. […] Treatment started at day 6 post-immunization (p.i.) and consisted in daily injections of compounds III (FIG. 6) and XII (FIG. 8) at the indicated doses or of the vehicle alone (DMSO/PBS) for the following 21 days. The mice were examined daily for clinical signs of EAE and disease scores were measured as follows: 0, no disease; 1, limp tail; 2, limp tail and hind limb weakness; 3, hind limb paralysis; 4, hind limb and front limb paralysis; 5, moribund and death. All animals were sacrificed 28 days (p.i.) for further analysis. Once sacrificed, animals were dissected and their spinal cords were rapidly removed and quickly frozen in RNAlater (Sigma-Aldric, Germany).

[2] = tested on: Ccl2, iNOs, TNFα, IFNg, IL-1b and IL-17; experiment: EAE, pro-inflammatory gene expression in spinal cord (real-time PCR); type: in vivo, C57BL/6 mice; conditions: EAE mice, 10 mg/kg, vs EAE+vehicle, FIG. 7
Description: Gene expression of inflammatory markers including CCL2, IFNγ, INOS, TNFα, IL-1β and IL-17 in the spinal cord was down regulated in EAE+compound (III) (10 mg/kg) group compared with EAE+Vehicle mice. Expression levels were calculated using the 2^−ΔΔct method.
EAE was induced in female C57BL/6 mice at 6-8 weeks of age by subcutaneous immunization with myelin oligodendrocyte glycoprotein polypeptide (MOG35-55) (300 μg) and 200 μg of Mycobacterium tuberculosis (H37Ra Difco, Franklin Lakes, N.J., USA) in a 1:1 mix with […] Freund's adjuvant (CFA, Sigma-Aldrich, Madrid, Spain). […] The mice were examined daily for clinical signs of EAE and disease scores were measured as follows: 0, no disease; 1, limp tail; 2, limp tail and hind limb weakness; 3, hind limb paralysis; 4, hind limb and front limb paralysis; 5, moribund and death. […]
Total RNA was isolated from striata (3NP model) or spinal cord (EAE model) using RNeasy Lipid Tissue Mini Kit (Qiagen, GmbH). The total amount of RNA extracted was quantitated by spectrometry at 260 nm and its purity from the ratio between the absorbance values at 260 and 280 nm. […] The iQ™ SYBR Green Supermix (Bio-Rad) was used to quantify mRNA levels for COX-2, TNF-α, IL-6, IL-17, IL-1β, IFN-γ, CCL-2 or iNOS depending on disease's model. […] Expression levels were calculated using the 2^−ΔΔct method.

6-OHDA-lesioned mice = experiment: Parkinson's disease 6-OHDA model, rotarod and actimeter; type: in vivo, C57BL/6 mice; conditions: 6-OHDA mice, chronic intraperitoneal treatment 10 mg/ml, 14 days, FIG. 13
Description: C57BL/6 mice were unilaterally injected intracerebroventricullarly with 6-hydroxydopamine (6-OHDA) or saline (control mice) and subjected to chronic intraperitoneal treatment with compound III (10 mg/ml) or vehicle (14 days), starting 16 h after the 6-OHDA injection. Motor coordination was evaluated by rotarod performance and motor activity was evaluated using a computer-aided actimeter. Values are expressed as means±SEM for 6 animals per group.
C57BL/6 mice pretreated intracerebroventricularly (i.c.v.) were anesthetized with an intraperitoneal (i.p.) injection of 200 mg′kg of 2,2,2-tribromoethanol (Sigma-Aldrich) and placed in a stereotaxic frame with a mouse adapter (David Kopf Instruments, Tujunga, Calif., USA). […] Motor coordination was evaluated in the rotarod test (Ugo Basile, Rome, Italy) at crescent speed. […] The latency to fall off the rod was measured on consecutive days in lesioned mice following the compound III administration or vehicle control. Motor activity (ambulatory activity, mean velocity, resting time, fast movements and number of rearings) was evaluated using a computer-aided actimeter (FIG. 13).

PPARg [3] = tested on: PPARg

CCCCCC1=C(NCC)C(=O)C(C/C=C(\C)CCC=C(C)C)=C(O)C1=O [Compound III, 6-(3,7-dimethyl-octa-2,6-dienyl)-5-hydroxy-3-pentyl-2-ethylamino-[1,4]benzoquinone]
PPARg activation (fold) compared with CBG-Q (PPARg [1]): higher efficiency than CBG-Q
protection from glutamate-induced cytotoxicity (cell viability, MTT) (N2a cells): protect neuronal cells from glutamate-induced apoptosis
clinical manifestations of EAE (EAE mice; 10 mg/kg daily from day 6 post-immunization for 21 days, FIG. 6): clearly attenuated
EAE clinical score throughout the experiment (day 6-day 28) (EAE mice; 10 mg/kg daily, score scale 0-5, vehicle-treated mice reached 2.5): < 1.3
day on which the disease peaked (EAE mice; 10 mg/kg daily, vehicle-treated mice peaked by day 16): 17 day post-injection
expression of proinflammatory genes Ccl2, iNOs, TNFα, IFNg, IL-1b and IL-17 in the spinal cord [2]: significant decrease
motor symptoms (ambulatory activity, mean velocity, resting time, fast movement, number of rearing, rotarod performance) (6-OHDA-lesioned mice): almost completely suppressed
PPARg transactivation (luciferase activity, fold induction over untreated cells) (PPARg [3]): most active compounds
